Experimental data reported in publication PMC11198769, “Enhancement of transcription efficiency by TAR-Tat system increases the functional expression of human olfactory receptors” (PLOS ONE, 2024).
Like-named read-outs stand apart in the source and are kept apart here.

What was measured:
Assay in all cases: hOR assay (GloSensor cAMP luciferase), dose-response
Format in all cases: cell-based
OR10C1 = molecular target: T1, OR10C1 (Homo sapiens, UniProt Q96KK4); settings: OR10C1, with or without the TAR-Tat system
T1 construct: Lucy tag (N); expressed in transfected cells; host or cells: Flp-In T-REx-293 cells stably expressing RTP1S, Gαolf and Ric8-b
T1 sequence (Q96KK4 1-312): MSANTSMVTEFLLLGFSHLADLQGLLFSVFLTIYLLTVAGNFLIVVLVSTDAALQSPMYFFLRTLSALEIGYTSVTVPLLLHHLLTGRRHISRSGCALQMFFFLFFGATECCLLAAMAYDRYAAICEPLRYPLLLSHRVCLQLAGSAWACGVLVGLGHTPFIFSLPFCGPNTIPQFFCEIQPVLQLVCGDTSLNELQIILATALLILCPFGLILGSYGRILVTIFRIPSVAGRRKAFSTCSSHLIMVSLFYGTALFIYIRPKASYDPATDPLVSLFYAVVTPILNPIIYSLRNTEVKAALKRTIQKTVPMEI
Description: (§1) Flp-In T-REx-293 cells stably expressing accessory proteins (RTP1S, Gαolf, and Ric8-b) were established using the Flp-In T-REx system. Accessory proteins-expressing cells were maintained in high-glucose Dulbecco’s modified Eagle medium (Sigma-Aldrich) containing 10% fetal bovine serum (Biowest) and 1% antibiotic–antimycotic (Nacalai tesque) at 37°C with 5% CO2.
(§2) The GloSensor™ Technology (Promega) was used for the luciferase assay of the hOR response. As the negative control, cells that were transfected by the pBApo-CMV neo vector and pHEK293 Ultra Expression Vector I were used as mock cells. hOR/pHEK and hOR/pBApo (50 ng/well) were transfected into the accessory proteins-expressing cell line (40000 cells/well) using Lipofectamine 2000 (Thermo Fisher Scientific) (400 nL/well) along with pGlosensor™-22F cAMP biosensor plasmid (Promega) (50 ng/well) in a 96-well plate. At 28 h posttransfection, the cells were washed with an assay buffer (140 mM NaCl, 10 mM HEPES, 5 mM KCl, 1 mM CaCl2・2H2O, 10 mM D-glucose, pH 7.5) and replaced with the assay buffer (50 μL/well) containing 2% GloSensor cAMP substrate and preincubated for 1 h at 25°C. Then, the assay buffer was added (130 μL/well). After 10 min of equilibration, the luminescence was measured (L0). Odorants diluted in 10% DMSO/assay buffer were treated (20 μL/well). After 9 min, the luminescence was measured (L9min). First, all the L9min values were subtracted by the L0 value (ΔL) and divided by the L0 value (ΔL/L0). The concentration range of the odorants was different for each odorant, but the minimum was 0.01 μM and the maximum was 3 mM. For all hORs, luciferase assays with hOR/pBApo and hOR/pHEK were conducted in the same 96-well plate each time, and luminescence was normalized to a maximum value of 100. Dose–response curve images were graphed using the Graph Pad Prism 9 software (Graph Pad Software).

OR1A1 = molecular target: T2, OR1A1 (Homo sapiens, UniProt Q9P1Q5)
T2 construct: Lucy tag (N); FLAG (N); Rho tag (N); expressed in transfected cells; host or cells: Flp-In T-REx-293 cells stably expressing RTP1S, Gαolf and Ric8-b
T2 sequence (Q9P1Q5 1-309): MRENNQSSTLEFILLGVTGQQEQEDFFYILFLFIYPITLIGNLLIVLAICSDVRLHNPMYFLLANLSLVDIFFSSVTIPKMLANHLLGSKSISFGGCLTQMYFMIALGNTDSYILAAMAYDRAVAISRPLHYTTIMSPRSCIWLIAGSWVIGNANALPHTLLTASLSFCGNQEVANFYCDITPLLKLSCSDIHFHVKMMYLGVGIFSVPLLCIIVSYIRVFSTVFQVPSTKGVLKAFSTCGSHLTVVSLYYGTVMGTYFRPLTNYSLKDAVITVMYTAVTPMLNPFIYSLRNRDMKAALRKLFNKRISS
Description: as §1, §2

OR2W1 = molecular target: T3, OR2W1 (Homo sapiens, UniProt Q9Y3N9); settings: for EC50: read-out: EC50 of n-hexanal concentration-response relationship
T3 construct: Lucy tag (N); FLAG (N); Rho tag (N); expressed in transfected cells; host or cells: Flp-In T-REx-293 cells stably expressing RTP1S, Gαolf and Ric8-b
T3 sequence (Q9Y3N9 1-320): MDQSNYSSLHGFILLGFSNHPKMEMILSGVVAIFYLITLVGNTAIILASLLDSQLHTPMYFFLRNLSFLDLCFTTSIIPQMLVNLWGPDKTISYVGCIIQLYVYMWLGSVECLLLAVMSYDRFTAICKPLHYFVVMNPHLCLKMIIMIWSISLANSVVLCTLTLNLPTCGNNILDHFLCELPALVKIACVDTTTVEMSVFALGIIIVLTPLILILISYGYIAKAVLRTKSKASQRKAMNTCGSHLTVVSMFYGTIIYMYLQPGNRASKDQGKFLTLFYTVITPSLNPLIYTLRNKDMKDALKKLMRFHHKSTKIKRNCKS
Description: as §1, §2

OR4K5 = molecular target: T4, OR4K5 (Homo sapiens, UniProt Q8NGD3); settings: OR4K5, with or without the TAR-Tat system
T4 construct: Lucy tag (N); FLAG (N); Rho tag (N); expressed in transfected cells; host or cells: Flp-In T-REx-293 cells stably expressing RTP1S, Gαolf and Ric8-b
T4 sequence (Q8NGD3 1-323): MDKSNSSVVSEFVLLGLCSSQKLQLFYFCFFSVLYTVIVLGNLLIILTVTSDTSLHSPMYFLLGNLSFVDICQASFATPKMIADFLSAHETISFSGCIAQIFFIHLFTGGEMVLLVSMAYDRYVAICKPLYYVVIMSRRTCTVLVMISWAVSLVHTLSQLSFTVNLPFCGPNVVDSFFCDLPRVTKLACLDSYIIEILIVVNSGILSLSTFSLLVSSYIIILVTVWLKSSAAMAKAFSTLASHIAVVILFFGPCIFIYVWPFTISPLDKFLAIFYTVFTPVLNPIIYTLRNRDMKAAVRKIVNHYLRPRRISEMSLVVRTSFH
Description: as §1, §2

OR52N4 = molecular target: T5, OR52N4 (Homo sapiens, UniProt Q8NGI2); settings: OR52N4, with or without the TAR-Tat system
T5 construct: Lucy tag (N); expressed in transfected cells; host or cells: Flp-In T-REx-293 cells stably expressing RTP1S, Gαolf and Ric8-b
T5 sequence (Q8NGI2 1-321): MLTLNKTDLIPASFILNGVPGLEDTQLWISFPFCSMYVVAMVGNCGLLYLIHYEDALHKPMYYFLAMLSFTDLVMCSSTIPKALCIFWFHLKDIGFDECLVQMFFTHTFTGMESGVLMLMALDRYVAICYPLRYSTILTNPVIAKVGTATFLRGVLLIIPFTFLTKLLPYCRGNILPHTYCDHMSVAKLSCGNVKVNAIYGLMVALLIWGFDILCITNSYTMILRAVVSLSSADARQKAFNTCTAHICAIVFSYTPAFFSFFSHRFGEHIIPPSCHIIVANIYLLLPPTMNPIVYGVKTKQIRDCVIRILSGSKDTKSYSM
Description: as §1, §2

## CCCCCC=O [n-hexanal]
OR10C1
  concentration-dependent response to n-hexanal: no concentration-dependent response
OR1A1; OR1A1, with and without the TAR-Tat system
  concentration-dependent response to n-hexanal: concentration-dependent responses only with the TAR-Tat system
OR1A1; OR1A1/pHEK (with TAR-Tat system), read-out: EC50 of n-hexanal concentration-response relationship
  EC50: 995 µM
OR2W1; OR2W1, with and without the TAR-Tat system
  concentration-dependent response to n-hexanal: Concentration-dependent responses were observed
OR2W1; OR2W1/pBApo (without TAR-Tat system)
  EC50: 21 µM
OR2W1; OR2W1/pHEK (with TAR-Tat system)
  EC50: 60 µM
OR2W1; OR2W1/pHEK versus OR2W1/pBApo
  increase of maximum value of dose-response curve with the TAR-Tat system: 2.0 fold
OR4K5
  concentration-dependent response to n-hexanal: no concentration-dependent response
OR52N4
  concentration-dependent response to n-hexanal: no concentration-dependent response
